Assays:
[1] = Skin permeation of CBD formulation in Franz-type diffusion cell; type: in vitro ADME
Method: Dermatomed skin from a single donor was mounted in a Franz-type diffusion cell (0.55 cm^2 receptor fluid exposure surface area) and dosed with 5 ul of CBD formulated in an mixture of a volatile solvent (hexylmethyldisiloxane/polymethylsiloxane—93% w/w), and residual solvent (arlamol E—2% w/w) at a concentration of 5.0% (w/w; 35.5 mg/ml). Following dosing, receptor phase samples were collected at 4, 10, 24 and 48 hours; after which the study was terminated.
The residual formulation was removed by tape stripping and the epidermis and dermis separated by blunt dissection. The levels of CBD in the epidermis, dermis, and receptor fluid samples were then analyzed using a bioanalytical method with LC-MS/MS detection.

[2] = target: human vanilloid receptor type 1 (VR1) (Homo sapiens, UniProt Q8NER1); conditions: in vitro; cited from earlier work
anandamide = conditions: in vitro; cited from earlier work
sensitized guinea-pigs = conditions: intravenous administration; cited from earlier work
rats = conditions: injected into rats; cited from earlier work
[3] = 5.0% w/w CBD formulation, 48-hour period
[4] = 5 ul of 5.0% w/w CBD formulation, over the 48-hour exposure period
[5] = following application of CBD mixture, 48 hours

Chain of human vanilloid receptor type 1 (VR1) (Q8NER1 whole entry): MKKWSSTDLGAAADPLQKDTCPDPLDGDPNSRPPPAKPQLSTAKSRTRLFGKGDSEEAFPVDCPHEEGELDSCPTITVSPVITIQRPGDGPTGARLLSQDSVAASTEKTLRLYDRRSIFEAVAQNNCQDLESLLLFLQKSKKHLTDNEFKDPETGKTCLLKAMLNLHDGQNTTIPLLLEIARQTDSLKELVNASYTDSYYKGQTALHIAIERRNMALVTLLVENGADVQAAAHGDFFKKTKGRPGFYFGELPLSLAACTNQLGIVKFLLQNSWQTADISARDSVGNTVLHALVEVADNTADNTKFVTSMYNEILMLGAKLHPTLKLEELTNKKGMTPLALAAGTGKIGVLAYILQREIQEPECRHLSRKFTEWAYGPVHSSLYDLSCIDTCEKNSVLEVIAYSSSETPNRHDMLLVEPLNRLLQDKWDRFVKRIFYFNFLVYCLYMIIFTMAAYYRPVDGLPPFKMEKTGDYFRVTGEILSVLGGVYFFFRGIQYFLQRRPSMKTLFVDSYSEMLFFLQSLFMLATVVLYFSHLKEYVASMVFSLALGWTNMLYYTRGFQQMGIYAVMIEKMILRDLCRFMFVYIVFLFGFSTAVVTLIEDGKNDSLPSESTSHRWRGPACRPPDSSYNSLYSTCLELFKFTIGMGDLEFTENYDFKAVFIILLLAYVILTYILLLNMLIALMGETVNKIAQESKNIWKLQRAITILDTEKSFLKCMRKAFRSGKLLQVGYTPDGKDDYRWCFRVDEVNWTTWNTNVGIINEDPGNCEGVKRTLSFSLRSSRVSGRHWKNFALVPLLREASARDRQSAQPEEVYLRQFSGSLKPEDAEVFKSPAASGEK

Structure (SMILES): C=C(C)C1CCC(C)=CC1c1c(O)cc(CCCCC)cc1O (centres unmarked) [CBD, 2-[3-methyl-6-(1-methylethenyl)-2-cyclohexen-1-yl]-5-pentyl-1,3-benzenediol]
- dermal deposition of CBD [1, 3]: 4.54 % of the applied dose
- epidermal deposition of CBD [1, 3]: 13.17 % of the applied dose
- CBD in the receptor phase (skin permeation), amount per area [1, 4]: < 278 ng/cm^2
- CBD in the receptor phase (skin permeation), percent of applied dose [1, 4]: less than 0.081%
- dermis concentration per area [1, 5]: 8,408 ng/cm^2
- dermis concentration per tissue weight [1, 5]: 1,933 ng/g of tissue
- dermis concentration per volume [1, 5]: ~1,933 ng/mL
- effect on human vanilloid receptor type 1 (VR1) [2]: stimulate
- effect on anandamide (anandamide): inhibit
- effect on airway obstruction (sensitized guinea-pigs): reduced airway obstruction
- effect on cardiac inflammation (rats): attenuated cardiac inflammation

— patent US11896560B2, “Cannabinoid dosing regime for dermatitis and inflammatory skin conditions” (Botanix Pharmaceuticals LTD, priority 2018, dated 2024)
